From patent publication US11135178B2, “Thymol and carvacol for use in medicine” (UNIVERSITY OF IOWA RESEARCH FOUNDATION, priority 2014, dated 2021)

Experiments:
[1] = test system: C2C12 myotubes; test: Fura-2 Ca2+ ratios in C2C12 myotubes, functional screen with TRPV agonists; format: cell-based; conditions: for intracellular (cytosolic) Ca2+ rise: Fura-2 Ca2+ ratios
Description: FIG. 2. Fura-2 Ca^2+ Ratios in C2C12 myotubes in response to known activators of TRPV1 (Capsaicin), TRPV3 (Thymol, Carvacrol, 2-APB), and TRPV4 (GSK 101). ** p<0.01 compared to vehicle Ca^2+ response.
To determine the physiological significance of these TRPV ion channels in skeletal muscle Ca^2+ homeostasis, a functional screen for the magnitude of intracellular Ca^2+ rise was performed using known agonists for TRPV1 (Capsaicin), TRPV3 (Carvacrol/Thymol/2-APB) and TRPV4 (GSK101) in C2C12 myotubes (FIG. 2). C2C12 myoblasts were grown to confluency and then differentiated into myotubes by culturing in Dulbecco's Modified Eagles Medium (DMEM) with 2% horse serum for 5 days. Measurement of Fura-2 Ca2+ ratios in C2C12 myotubes was performed as described previously in cultured adipocytes (Ye L., et al., TRPV4 is a regulator of adipose oxidative metabolism, inflammation, and energy homeostasis. Cell. 2012; 151:96-110).

[2] = test system: C2C12 myotubes; test: Myotube hypertrophy by immunostaining and confocal imaging (myotube diameter); format: cell-based; conditions: 50 μM for 48 hours
Description: FIG. 4. A. Confocal images immunostained C2C12 myotubes (staining skeletal actin and Topro-3 nuclear stain) incubated for 48 hrs in vehicle (left) or carvacrol 50 μM (right). B. quantification of myotube width. NT—not treated, Vehicle—DMSO.
It was next examined whether the increase in cytosolic Ca^2+ induced by this class of compounds could induce cellular hypertrophy in vitro in C2C12 myotubes as would occur with augmented Ca^2+ release during exercise. Immunostaining and confocal imaging of C2C12 myotubes were performed as described previously in cardiac myocytes (Sah R., et al., The Timing of Myocardial Trpm7 Deletion during Cardiogenesis Variably Disrupts Adult Ventricular Function, Conduction and Repolarization. Circulation. 2013).

[3] = test system: PGC1α; test: qRT-PCR transcriptional screen in C2C12 myotubes: PGC1α; format: cell-based; conditions: 48 hrs
Description: (§1) FIG. 5. […] A. fold change after 48 hrs carvacrol (0, 5, and 100 μM, from left to right for each grouping); and B. thymol (0, 5, and 50 μM, from left to right for each grouping).
(§2) A qRT-PCR based transcriptional screen was then performed to assess for induction of the classical genes associated with exercise-induced changes in skeletal muscle, including growth, and enhanced endurance (FIG. 5). Transcriptional analysis of candidate genes was performed as described previously (Sah R., et al., The Timing of Myocardial Trpm7 Deletion during Cardiogenesis Variably Disrupts Adult Ventricular Function, Conduction and Repolarization. Circulation. 2013; Sah R., et al., Ion channel-kinase TRPM7 is required for maintaining cardiac automaticity. Proc Natl Acad Sci USA. 2013; 110:E3037-46) using the following primers: […]

[4] = test system: flexor digitorum brevis (FDB) muscle fibers; test: Confocal calcium imaging (Fluo-4AM) of freshly isolated FDB muscle fibers; format: cell-based, mouse; conditions: for effects on Ca2+ cycling: freshly isolated muscle fibers, carvacrol 100, 200, 500 μM, thymol 50, 100, 200 μM
Description: FIG. 3. Confocal calcium imaging (Fluo-4AM) of freshly isolated mouse flexor digitorum brevis (FDB) muscle fibers in response to sequential applications of carvacrol (A: 100, 200 and 500 μM) and thymol (B: 50, 100 and 200 μM).
These findings were further validated in freshly isolated mouse flexor digitorum brevis (FDB) muscle fibers (FIG. 3) to confirm the result in primary muscle cells. Primary skeletal muscle fibers were isolated from flexor digitorum brevis (FDB) muscle. In brief, FDB muscles were dissected and mechanically cleaned of connective tissue in a standard Ringer's solution containing (in mM): 146 NaCl, 5 KCl, 2 CaCl2, 1 MgCl2, and 10 HEPES, pH 7.4 with NaOH. Muscles were then shaken for 40 min at 37° C. in 1 mg/ml of collagenase A (Roche) dissolved in Ringer's solution. After collagenase treatment, individual FDB fibers were dissociated by gentle trituration using Pasteur pipettes of decreasing bore size. […] All experiments were conducted at room temperature on fibers obtained within 8 h of isolation. Confocal calcium imaging of FDB fibers were performed as described previously in cardiac myocytes but at room temperature (23° C.) (Sah R., et al., Ion channel-kinase TRPM7 is required for maintaining cardiac automaticity. Proc Natl Acad Sci USA. 2013; 110:E3037-46).

[5] = test system: IGF-1; test: qRT-PCR transcriptional screen in C2C12 myotubes: IGF-1; format: cell-based; conditions: 48 hrs
Description: as §1, §2

[6] = test system: C57/B6 mice; test: Exercise tolerance by treadmill testing of sedentary mice; format: in vivo, mouse; conditions: 20 mg/kg/day oral gavage, 5 weeks
Description: FIG. 6. Exercise tolerance measured by treadmill testing of C57/B6 mice before and after 5 weeks of either vehicle or thymol (20 mg/kg/day). A. Exercise protocol and tolerance after vehicle or thymol. B. Mean exercise tolerance pre and post treatment.
(§3) Based on these strong in vitro data, in vivo studies were then performed to determine both safety and efficacy of using thymol and/or carvacrol to mimic the effects of exercise on skeletal muscle function. […] Accordingly, the pilot studies were limited to thymol alone and treated sedentary C57/B6 mice with either vehicle (Sunflower oil) or Thymol (20 mg/kg/day) by oral gavage for 5 weeks and then assessed exercise capacity by treadmill testing, core body temperature by infra-red thermal imaging, and skeletal muscle hypertrophy by muscle weight. […] J Gen Physiol. 2014; 143:119-34)) after mild exercise (FIG. 7) and an increase in gastrocnemius muscle weight (weight bearing muscles—FIG. 8).

[7] = test system: C57/B6 mice; test: Core body temperature by infra-red thermal imaging after mild exercise; format: in vivo, mouse; conditions: sedentary C57/B6 mice, 20 mg/kg/day oral gavage, 5 weeks
Description: FIG. 7. Top: Representative thermal images of vehicle (left) and thymol (right) treated mice. Bottom: Mean data of temperature of upper and lower body in vehicle-treated vs thymol treated mice.
as §3

[8] = test system: TRPV3 knock-out mice; test: In vivo experiments repeated in TRPV3 knock-out mice; set-up: species or system mouse; conditions: TRPV3 KO mice, 20 mg/kg/day, 5 weeks
Description: FIG. 9: Exercise tolerance measured by treadmill testing of TRPV3 KO mice before and after 5 weeks of either vehicle or thymol (20 mg/kg/day). A. Exercise protocol and tolerance after vehicle or thymol. B. Mean exercise tolerance pre and post treatment.
as §3

[9] = test system: C57/B6 mice; test: Skeletal muscle hypertrophy by muscle weight; format: in vivo, mouse; conditions: sedentary C57/B6 mice, 20 mg/kg/day oral gavage, 5 weeks
Description: FIG. 8: Skeletal muscle weight in sedentary C57/B6 mice after 5 weeks of treatment with either vehicle or thymol (for each group, the left bar represents vehicle and the right bar represents thymol).
as §3

Compound | intracellular (cytosolic) Ca2+ rise [1] | induction of PGC1α [3] [fold] | effects on Ca2+ cycling [4] | induction of IGF-1 [5] [fold] | also measured
NCCOB(c1ccccc1)c1ccccc1 [2-APB, reference compound] | reproducible and reversible increases | – | – | – | –
COc1cc(CNC(=O)CCCC/C=C/C(C)C)ccc1O [Capsaicin, reference compound] | essentially no effect | – | – | – | –
CC(C)C[C@H](NC(=O)c1cc2ccccc2s1)C(=O)N1CCN(C(=O)[C@H](CO)NS(=O)(=O)c2ccc(Cl)cc2Cl)CC1 [GSK101, reference compound] | essentially no effect | – | – | – | –
Cc1ccc(C(C)C)cc1O [carvacrol, 2-methyl-5-isopropylphenol] | reproducible and reversible increases | 13.8 | clear effects | ~8 | myotube hypertrophy (increase in myotube diameter) [2]: significant myotube hypertrophy
Cc1ccc(C(C)C)c(O)c1 [thymol, 2-isopropyl-5-methylphenol] | reproducible and reversible increases | 3 | clear effects | ~4 | augmented exercise capacity over vehicle treated mice [6]: 37%; potency at augmenting cytosolic Ca2+ relative to carvacrol [1]: approximately twice as potent as carvacrol; core body temperature after mild exercise [7]: significant increase; augmented thermogenesis in TRPV3 knock-out mice [8]: abolished; enhanced exercise capacity in TRPV3 knock-out mice [8]: abolished; gastrocnemius hypertrophy in TRPV3 knock-out mice [8]: abolished; gastrocnemius muscle weight [9]: increase; potency at augmenting cytosolic Ca2+ relative to carvacrol ([4]; freshly isolated mouse FDB fibers): approximately twice as potent as carvacrol
